Source: PubChem BioAssay AID1259407 (Chemical Carcinogenesis Research Information System (CCRIS), 2018)
The source made the active and inactive calls. How the calls were made is not given here.

System: CCRIS mutagenicity, Ames/micronucleus/aberration tests
Test: CCRIS mutagenicity studies
[1] = Test System: MOUSE LYMPHOMA, Strain/Indicator: L5178Y (TK+/TK-), Metabolic Activation: NONE, Method: SUSPENSION/PLATE
[2] = Test System: MOUSE LYMPHOMA, Strain/Indicator: L5178Y (TK+/TK-), Metabolic Activation: RAT, LIVER, S-9, AROCLOR 1254, Method: SUSPENSION/PLATE
[3] = Test System: AMES SALMONELLA TYPHIMURIUM, Strain/Indicator: TA98, Metabolic Activation: NONE, Method: STANDARD PLATE
[4] = Test System: AMES SALMONELLA TYPHIMURIUM, Strain/Indicator: TA100, Metabolic Activation: NONE, Method: STANDARD PLATE
[5] = Test System: AMES SALMONELLA TYPHIMURIUM, Strain/Indicator: TA98, Metabolic Activation: RAT, LIVER, S-9, PHENOBARBITAL, Method: STANDARD PLATE
[6] = Test System: AMES SALMONELLA TYPHIMURIUM, Strain/Indicator: TA100, Metabolic Activation: RAT, LIVER, S-9, PHENOBARBITAL, Method: STANDARD PLATE

SMILES: Cc1ccc(N)cc1N=Nc1cc(N)ccc1C
- mutagenic call (Test System: AMES SALMONELLA TYPHIMURIUM, Strain/Indicator: TA98, Metabolic Activation: NONE, Method: SUSPENSION/PLATE): inactive; negative
- mutagenic call (Test System: AMES SALMONELLA TYPHIMURIUM, Strain/Indicator: TA98, Metabolic Activation: RAT, LIVER, S-9, PHENOBARBITAL AND 5,6-BENZOFLAVONE, Method: SUSPENSION/PLATE): active; positive
- mutagenic call (Test System: AMES SALMONELLA TYPHIMURIUM, Strain/Indicator: TA100, Metabolic Activation: NONE, Method: SUSPENSION/PLATE): inactive; negative
- mutagenic call (Test System: AMES SALMONELLA TYPHIMURIUM, Strain/Indicator: TA100, Metabolic Activation: RAT, LIVER, S-9, PHENOBARBITAL AND 5,6-BENZOFLAVONE, Method: SUSPENSION/PLATE): active; positive

SMILES: O=C(Nc1ccc2c(c1)C=C(S(=O)(=O)O)/C(=N/Nc1ccc(N=Nc3ccc(S(=O)(=O)O)cc3)cc1S(=O)(=O)O)C2=O)Nc1ccc2c(c1)C=C(S(=O)(=O)O)/C(=N/Nc1ccc(N=Nc3ccc(S(=O)(=O)O)cc3)cc1S(=O)(=O)O)C2=O
- mutagenic call [1]: inactive; negative. reevaluation of results: negative
- mutagenic call [2]: inactive; negative. reevaluation of results: negative

SMILES: CCCN(N)CCC
- mutagenic call (Test System: AMES SALMONELLA TYPHIMURIUM, Strain/Indicator: TA100, Metabolic Activation: NONE, Method: PREINCUBATION (11 HR GROWTH PERIOD FOR BACTERIA)): active; positive
- mutagenic call (Test System: AMES SALMONELLA TYPHIMURIUM, Strain/Indicator: TA100, Metabolic Activation: RAT, LIVER, S-9, PCB, Method: PREINCUBATION (11 HR GROWTH PERIOD FOR BACTERIA)): inactive; negative
- mutagenic call (Test System: AMES SALMONELLA TYPHIMURIUM, Strain/Indicator: TA102, Metabolic Activation: NONE, Method: PREINCUBATION (5 OR 7 HR GROWTH PERIOD FOR BACTERIA)): active; positive
- mutagenic call (Test System: AMES SALMONELLA TYPHIMURIUM, Strain/Indicator: TA102, Metabolic Activation: RAT, LIVER, S-9, PCB, Method: PREINCUBATION (5 OR 7 HR GROWTH PERIOD FOR BACTERIA)): inactive; negative

SMILES: Nc1ncn([C@@H]2O[C@H](CO)[C@@H](O)[C@@H]2O)c(=O)n1
- mutagenic call (Test System: AMES SALMONELLA TYPHIMURIUM, Strain/Indicator: TA98, Metabolic Activation: HAMSTER, LIVER, S-9, AROCLOR 1254, Method: STANDARD PLATE): inactive; negative
- mutagenic call [3]: inactive; negative
- mutagenic call (Test System: AMES SALMONELLA TYPHIMURIUM, Strain/Indicator: TA98, Metabolic Activation: RAT, LIVER, S-9, AROCLOR 1254, Method: STANDARD PLATE): inactive; negative
- mutagenic call (Test System: AMES SALMONELLA TYPHIMURIUM, Strain/Indicator: TA100, Metabolic Activation: HAMSTER, LIVER, S-9, AROCLOR 1254, Method: STANDARD PLATE): inactive; negative
- mutagenic call [4]: inactive; negative
- mutagenic call (Test System: AMES SALMONELLA TYPHIMURIUM, Strain/Indicator: TA100, Metabolic Activation: RAT, LIVER, S-9, AROCLOR 1254, Method: STANDARD PLATE): inactive; negative
- mutagenic call (Test System: AMES SALMONELLA TYPHIMURIUM, Strain/Indicator: TA1535, Metabolic Activation: HAMSTER, LIVER, S-9, AROCLOR 1254, Method: STANDARD PLATE): inactive; negative
- mutagenic call (Test System: AMES SALMONELLA TYPHIMURIUM, Strain/Indicator: TA1535, Metabolic Activation: NONE, Method: STANDARD PLATE): inactive; negative
- mutagenic call (Test System: AMES SALMONELLA TYPHIMURIUM, Strain/Indicator: TA1535, Metabolic Activation: RAT, LIVER, S-9, AROCLOR 1254, Method: STANDARD PLATE): inactive; negative
- mutagenic call (Test System: AMES SALMONELLA TYPHIMURIUM, Strain/Indicator: TA1537, Metabolic Activation: HAMSTER, LIVER, S-9, AROCLOR 1254, Method: STANDARD PLATE): inactive; negative
- mutagenic call (Test System: AMES SALMONELLA TYPHIMURIUM, Strain/Indicator: TA1537, Metabolic Activation: NONE, Method: STANDARD PLATE): inactive; negative
- mutagenic call (Test System: AMES SALMONELLA TYPHIMURIUM, Strain/Indicator: TA1537, Metabolic Activation: RAT, LIVER, S-9, AROCLOR 1254, Method: STANDARD PLATE): inactive; negative
- mutagenic call (Test System: AMES SALMONELLA TYPHIMURIUM, Strain/Indicator: TA1538, Metabolic Activation: HAMSTER, LIVER, S-9, AROCLOR 1254, Method: STANDARD PLATE): inactive; negative
- mutagenic call (Test System: AMES SALMONELLA TYPHIMURIUM, Strain/Indicator: TA1538, Metabolic Activation: NONE, Method: STANDARD PLATE): inactive; negative
- mutagenic call (Test System: AMES SALMONELLA TYPHIMURIUM, Strain/Indicator: TA1538, Metabolic Activation: RAT, LIVER, S-9, AROCLOR 1254, Method: STANDARD PLATE): inactive; negative
- mutagenic call [1]: active; positive. reevaluation of results: inconclusive
- mutagenic call [2]: inactive; negative. reevaluation of results: inconclusive

SMILES: CO[C@]1(CC[C@@H](C)CO[C@@H]2O[C@H](CO)[C@@H](O)[C@H](O)[C@H]2O)O[C@H]2C[C@H]3[C@@H]4CC=C5C[C@@H](O[C@@H]6O[C@H](CO)[C@@H](O)[C@H](O[C@@H]7O[C@H](CO)[C@@H](O)[C@H](O)[C@H]7O)C6O[C@@H]6O[C@@H](C)[C@H](O)[C@@H](O)[C@H]6O)CC[C@]5(C)[C@H]4CC[C@]3(C)[C@H]2[C@@H]1C (stereo not given in full)
- mutagenic call [3]: inactive; negative
- mutagenic call [5]: inactive; negative
- mutagenic call [4]: inactive; negative
- mutagenic call [6]: inactive; negative

SMILES: O=C1O[C@@H]2[C@@H](O)CO[C@]2(O)[C@@]1(O)Cc1c[nH]c2ccccc12
- mutagenic call [3]: inactive; negative
- mutagenic call (Test System: AMES SALMONELLA TYPHIMURIUM, Strain/Indicator: TA98, Metabolic Activation: RAT, LIVER, S-9, PCB, Method: STANDARD PLATE): inactive; negative
- mutagenic call [4]: inactive; negative
- mutagenic call (Test System: AMES SALMONELLA TYPHIMURIUM, Strain/Indicator: TA100, Metabolic Activation: RAT, LIVER, S-9, PCB, Method: STANDARD PLATE): inactive; negative

SMILES: COc1c2ccoc2nc2c(OC)cccc12
- mutagenic call (Test System: AMES SALMONELLA TYPHIMURIUM, Strain/Indicator: TA98, Metabolic Activation: RAT, LIVER, MICROSOMES, PHENOBARBITAL, Method: STANDARD PLATE): active; positive
- mutagenic call [5]: active; positive
- mutagenic call (Test System: AMES SALMONELLA TYPHIMURIUM, Strain/Indicator: TA100, Metabolic Activation: RAT, LIVER, MICROSOMES, PHENOBARBITAL, Method: STANDARD PLATE): active; positive
- mutagenic call [6]: active; positive
- mutagenic call (Test System: AMES SALMONELLA TYPHIMURIUM, Strain/Indicator: TA1535, Metabolic Activation: RAT, LIVER, MICROSOMES, PHENOBARBITAL, Method: STANDARD PLATE): inactive; negative
- mutagenic call (Test System: AMES SALMONELLA TYPHIMURIUM, Strain/Indicator: TA1538, Metabolic Activation: RAT, LIVER, MICROSOMES, PHENOBARBITAL, Method: STANDARD PLATE): active; positive

SMILES: O=[N+]([O-])c1ccc2c3c1ccc1cccc(c13)[C@@H](O)[C@@H]2O
- mutagenic call (Test System: AMES SALMONELLA TYPHIMURIUM, Strain/Indicator: TA98, Metabolic Activation: NONE, Method: PREINCUBATION): active; positive
- mutagenic call (Test System: AMES SALMONELLA TYPHIMURIUM, Strain/Indicator: TA98, Metabolic Activation: RAT, LIVER, S-9, AROCLOR 1254, Method: PREINCUBATION): active; positive
- mutagenic call (Test System: AMES SALMONELLA TYPHIMURIUM, Strain/Indicator: TA100, Metabolic Activation: NONE, Method: PREINCUBATION): active; positive
- mutagenic call (Test System: AMES SALMONELLA TYPHIMURIUM, Strain/Indicator: TA100, Metabolic Activation: RAT, LIVER, S-9, AROCLOR 1254, Method: PREINCUBATION): active; positive
